Target: acyl-coenzyme A:cholesterol acyltransferase (ACAT)
Assay type: biochemical, Mus musculus

CCCCCCCCCC[Si](C)(C)CCC(=O)NC(Cc1ccc(C)cc1)c1ccccc1 (centres unmarked) [58-035]
IC50: 400 ± 200 nM

Cc1ccc(Cn2nc(C(=O)N[C@@H]3C(C)(C)[C@@H]4CC[C@@]3(C)C4)cc2-c2ccc(Cl)c(C)c2)cc1 [SR144528]
IC50: 3600 ± 1100 nM
